Experimental data published in US9206396B2, “Methods and devices for quantitative viral assays” (Wisconsin Alumni Research Foundation, priority 2005, dated 2015).
In brackets after ≈: the same amount, converted by molar mass. Entries after “also recorded” stand apart in the source; their conditions may differ. Where two headings read alike, the source gives them in different places.

Assays:
Assay in all cases: microbe, parasite or virus in culture
Format in all cases: cell-based, recombinant VSV in BHK cells
rVSV-GFP [1] = tested on: rVSV-GFP
rVSV-GFP [2] = tested on: rVSV-GFP; remark: listed apart in the source
rVSV-GFP [3] = tested on: rVSV-GFP; remark: listed apart in the source

In the case of O=c1[nH]cc(F)c(=O)[nH]1 [5-fluorouracil], the “Infection at drug concentration of 16 μg/ml, yield assay” value (rVSV-GFP [1]) is reported as “retained detectable infection”, the IC50 (rVSV-GFP [1]; Vesicular stomatitis virus, read-out: IC50, drug concentration required to reduce the virus yield by 50%) is reported as 4 µg/mL (≈ 30.8 µM) and the “Detection of comets at 16 μg/ml” value (rVSV-GFP [2]) is reported as “comets could no longer be detected”. The “Inhibition of VSV comet formation” value (rVSV-GFP [2]) was “Dose-dependent inhibition; also recorded: inhibited the formation of comets in a dose-dependent manner”, the IC50 (rVSV-GFP [2]; Vesicular stomatitis virus, read-out: 50 percent inhibition concentration (IC50), virus infectivity, comet assay) was 1 µg/mL (≈ 7.69 µM) and the “Infection at drug concentration of 16 μg/ml, plaque assay” value (rVSV-GFP [3]) was “retained detectable infection”. It also gave an IC50 (rVSV-GFP [3]; Vesicular stomatitis virus, read-out: IC50, drug concentration required to reduce the number of plaques by 50%) of 16 µg/mL (≈ 123 µM).
